From the NIST ThermoML archive (doi:10.1016/j.fluid.2017.04.006) come the findings set out here.

Series [1] in a line: Molar enthalpy of transition or fusion. To be noted: DSC.
The conditions of series [2]: DSC.
The nature of series [3]: xn = mol fraction of the nth substance listed. The settings on record: 298.15 K, 97.59 kPa, Liquid, Vibrating tube method.

Numbers after ± are expanded uncertainties.

In the case of `CS(=O)(=O)[O-].[NH4+]` [ammonium methanesulfonate], the figures for the “Molar enthalpy of transition or fusion” value in series [1] (Crystal 1) and in series [1] (Crystal 2) were 2.03 ± 0.12 kcal/mol and 2.32 ± 0.0717 kcal/mol, respectively. For the same compound, the values for the Triple point temperature in series [2] (Crystal 1) and in series [2] (Crystal 2) were 470.05 ± 1.8 K and 463.05 ± 1.2 K, respectively.

Turning to `CS(=O)(=O)[O-].[NH4+]` [ammonium methanesulfonate] + O, the mass density in series [3] (x1 = 0.0085) worked out at 1014.9 ± 5.5 kg/m3; in series [3] (x1 = 0.0178) it was 1033.1 ± 5.6 kg/m3; in series [3] (x1 = 0.0275) it was 1050.8 ± 5.7 kg/m3; in series [3] (x1 = 0.0381) it was 1068.7 ± 5.8 kg/m3; in series [3] (x1 = 0.051), 1088.7 ± 5.8 kg/m3; in series [3] (x1 = 0.0648) it was 1108.4 ± 5.9 kg/m3. The mass density in series [3] (x1 = 0.0951) came to 1146.2 ± 5.9 kg/m3; in series [3] (x1 = 0.1144), 1166.9 ± 5.9 kg/m3; in series [3] (x1 = 0.1387), 1190.3 ± 5.8 kg/m3.

As for `CS(=O)(=O)[O-].[Na+]` [sodium methanesulfonate], in series [1] (Crystal), the “Molar enthalpy of transition or fusion” value turned out to be 5.75 ± 0.129 kcal/mol. Also, the Triple point temperature in series [2] (Crystal) came out at 625.95 ± 0.8 K.

For `CS(=O)(=O)[O-].[Na+]` [sodium methanesulfonate] + O, the mass density in series [3] (x1 = 0.008) is listed as 1025 ± 5.6 kg/m3; in series [3] (x1 = 0.0188), 1059.9 ± 5.9 kg/m3; in series [3] (x1 = 0.0358) it was 1110.4 ± 6.2 kg/m3; in series [3] (x1 = 0.0438) it was 1132.7 ± 6.4 kg/m3; in series [3] (x1 = 0.0621), 1179.8 ± 6.6 kg/m3; in series [3] (x1 = 0.0743) it was 1209.3 ± 6.8 kg/m3. In addition, the mass density in series [3] (x1 = 0.0952) is reported as 1255.7 ± 7 kg/m3; in series [3] (x1 = 0.1087) it was 1283.5 ± 7.1 kg/m3; in series [3] (x1 = 0.1247), 1313.8 ± 7.2 kg/m3.
